# How the values were obtained:
# [1] = tested on: writhing induced by acetic acid; assay: Inhibitory actions on the writhing induced by acetic acid in mice; assay type: in vivo; conditions: 30 mg/kg orally, 30 min before 0.6% acetic acid; male ddY mice; number of writhing vs control group
# Experimental: As test animals, there were provided groups consisting of 7-9 male ddY strain mice weighing 20-24g. Each of the compounds indicated in the following table was orally administered to the mice of one group. Thirty minutes later, 0.6% acetic acid was abdominally administered at a dose of 0.1ml/10g. Counting of the number of writhing was started 5 minutes later than the administration of the acetic acid and continued for 10 minutes. The inhibition rates were determined by comparing the number of writhing of the test group with that of the control group and were shown in the following Table.
# [2] = tested on: carrageenin-induced paw edema; assay: Inhibitory actions on carrageenin-induced paw edema in rats; assay type: in vivo; conditions: Rattus norvegicus, po, 60 min before carrageenin, male Wistar rats, 3 hours after induction, vs control group, read-out: Inhibition rate; for inhibition in vivo at 30 mg/kg: 30 mg/kg orally; for inhibition in vivo at 15 mg/kg: 15 mg/kg orally
# Experimental: Using, as test animals, male rats of Wistar strain each weighing approximately 150g, 0.1 ml of 1% x-carrageenin was subcutaneously injected into the paw of each rat to induce the reaction. Since then, the volume of paw edema was measured with the lapse of time. Each compound indicated in the following Table was orally administered to the rats 60 minutes before the induction of the reaction. As shown in the following Table, the results were expressed in terms of inhibition rate in comparison with those in control group 3 hours after the induction of the reaction.
# collagen aggregation = assay: Inhibitory actions on blood platelet aggregation induced by collagen (Born's nephelometry, platelet rich plasma); assay type: cell-based; conditions: Oryctolagus cuniculus, collagen (10µg/ml), rabbit PRP, read-out: Inhibiting rate; for inhibition at 10 µM: final concentration 10 μM; for inhibition at 30 µM: final concentration 30 μM
# Experimental: (§1) Nine (9) ml of blood were drawn from the concha artery of a rabbit into a syringe containing therein 1 ml of a 3.2% solution of sodium citrate, after which the whole mass was centrifuged at 1100 rpm for 10 minutes to collect platelet rich plasma (PRP). The blood from which the PRP had been collected was again centrifuged at 3000 rpm for 5 minutes to collect platelet poor plasma (PPP). The PRP was adjusted to have 500,000/µl of platelets (thrombocytes) by the use of the PPP.
# (§2) Four hundred and forty-five (445)µl of the thus adjusted PRP were introduced into a cuvette, warmed to 37° C for 5 minutes, incorporated with 5µl of a solution of each of the test compounds, further warmed for two minutes and then incorporated with 50µl of collagen (10µg/ml) or 50µl of arachidonic acid (350µM) thereby to induce platelet aggregation. The platelet aggregation was measured in accordance with the Born's nephelometry by the use of an Aggregometer produced by Sysmex Co.
# [3] = tested on: arachidonic acid aggregation; assay: Inhibitory actions on blood platelet aggregation induced by arachidonic acid (Born's nephelometry, platelet rich plasma); assay type: cell-based; conditions: arachidonic acid (350µM), rabbit PRP; for inhibition at 3 µM / inhibition at 10 µM / inhibition at 30 µM: Oryctolagus cuniculus, Platelet, read-out: Inhibiting rate
# Experimental: as §1, §2
# gastric mucous damage = assay: Gastric mucous damage test in rats; assay type: in vivo; conditions: 10 mg/kg orally after fasting for 18 hours; male Wistar rats; stomachs observed 3.5 hours later
# Experimental: Using, as test animals, male rats of Wistar strain each weighing approximately 160g, the compounds of Examples 6 and 40 as well as indomethacin were each orally administered to the rats at the dose indicated in the following Table after their fasting for 18 hours. Three and a half (3.5) hours later, the rats were dissected to remove the stomachs therefrom. 10ml of a 70% ethanol were injected into the stomachs to fix them, and the stomachs were cut and washed with water and then visually observed to find whether ulcers were formed therein.
smiles,measurement,setting,value
"CC(C)OC(=O)C1CCn2c(-c3ccc(Cl)cc3)c(-c3ccc(Cl)cc3)c(C(=O)O)c21 (racemic) [Example 4, 5,6-bis(p-chlorophenyl)-1,2-dihydro-3H-pyrrolo[1,2-a]pyrrole-1-isopropyl carboxylate ester-7-carboxylic acid]",Inhibition rate,[1],56.4%
same,inhibition in vivo at 30 mg/kg,[2],31.2%
"O=C(Nc1ccccc1)C1CCn2c1cc(-c1ccc(Cl)cc1)c2-c1ccc(Cl)cc1 (racemic) [Example 7, N-phenyl-5,6-bis(p-chlorophenyl)-1,2-dihydro-3H-pyrrolo[1,2-a]pyrrole-1-carboxylic acid amide]",inhibition at 10 µM,collagen aggregation,78%
same,inhibition in vivo at 30 mg/kg,[2],37.4%
"CCCCNC(=O)C1CCn2c1cc(-c1ccc(Cl)cc1)c2-c1ccc(Cl)cc1 (racemic) [Example 8, N-bytyl-5,6-bis(p-chlorophenyl)-1,2-dihydro-3H-pyrrolo[1,2-a]pyrrole-1-carboxylic acid amide]",Inhibiting rate,[3]; final concentration 3 µM,92.5%
same,Inhibiting rate,[3]; final concentration 10 µM,90.2%
same,Inhibiting rate,[3]; final concentration 30 µM,92.5%
O=C(O)c1c(-c2ccc(F)cc2)c(-c2ccc(F)cc2)n2c1C(C(=O)O)CC2 (racemic) [Example 17],Inhibition rate,[1],78.4%
same,inhibition in vivo at 30 mg/kg,[2],42.9%
CC(C)OC(=O)C1CCn2c(-c3ccc(F)cc3)c(-c3ccc(F)cc3)c(C(=O)O)c21 (racemic) [Example 25],Inhibition rate,[1],49.1%
same,inhibition in vivo at 30 mg/kg,[2],30.1%
Cc1ccc(-c2cc3n(c2-c2ccc(C)cc2)CCC3C(=O)O)cc1 (racemic) [Example 37],Inhibition rate,[1],45.4%
same,inhibition at 30 µM,collagen aggregation,53.7%
same,inhibition in vivo at 15 mg/kg,[2],27.8%
O=C(O)C1CCn2c1cc(-c1ccc(F)cc1)c2-c1ccc(F)cc1 (racemic) [Example 38],inhibition in vivo at 30 mg/kg,[2],47.9%
COc1ccc(-c2cc3n(c2-c2ccc(OC)cc2)CCC3C(=O)O)cc1 (racemic) [Example 39],inhibition at 30 µM,collagen aggregation,61.7%
same,inhibition in vivo at 15 mg/kg,[2],34.7%
COc1ccc(-c2c(-c3ccc(Cl)cc3)cc3n2CCC3C(=O)O)cc1 (racemic) [Example 40],Inhibition rate,[1],87.3%
same,inhibition at 30 µM,collagen aggregation,63.8%
same,inhibition in vivo at 30 mg/kg,[2],48.2%
O=C(Nc1ccc(Cl)cc1)C1CCn2c1cc(-c1ccc(Cl)cc1)c2-c1ccc(Cl)cc1 (racemic) [Example 41],inhibition at 3 µM,[3]; final concentration 3 µM,83.4%
same,inhibition at 10 µM,[3]; final concentration 10 µM,88.7%
same,inhibition at 30 µM,[3]; final concentration 30 µM,89.4%
O=C(Nc1ccccn1)C1CCn2c1cc(-c1ccc(Cl)cc1)c2-c1ccc(Cl)cc1 (racemic) [Example 46],inhibition at 10 µM,collagen aggregation,64%
same,inhibition in vivo at 30 mg/kg,[2],39.4%
O=C(NCc1ccccc1)C1CCn2c1cc(-c1ccc(Cl)cc1)c2-c1ccc(Cl)cc1 (racemic) [Example 48],inhibition at 3 µM,[3]; final concentration 3 µM,14.3%
same,inhibition at 10 µM,[3]; final concentration 10 µM,86.5%
same,inhibition at 30 µM,[3]; final concentration 30 µM,91%
O=C(NC1CCCCC1)C1CCn2c1cc(-c1ccc(Cl)cc1)c2-c1ccc(Cl)cc1 (racemic) [Example 54],inhibition at 3 µM,[3]; final concentration 3 µM,93.5%
same,inhibition at 10 µM,[3]; final concentration 10 µM,93.5%
same,inhibition at 30 µM,[3]; final concentration 30 µM,91.9%
same,inhibition at 10 µM,collagen aggregation,79.5%
same,inhibition in vivo at 30 mg/kg,[2],40.2%
O=C(NCCCN1CCOCC1)C1CCn2c1cc(-c1ccc(Cl)cc1)c2-c1ccc(Cl)cc1 (racemic) [Example 57],inhibition at 10 µM,collagen aggregation,89.6%
same,inhibition in vivo at 30 mg/kg,[2],31.9%
CN1CCN(NC(=O)C2CCn3c2cc(-c2ccc(Cl)cc2)c3-c2ccc(Cl)cc2)CC1 (racemic) [Example 59],inhibition at 10 µM,collagen aggregation,83.4%
same,inhibition in vivo at 30 mg/kg,[2],30.5%
O=C(C1CCn2c1cc(-c1ccc(Cl)cc1)c2-c1ccc(Cl)cc1)N1CCOCC1 (racemic) [Example 61],inhibition at 3 µM,[3]; final concentration 3 µM,10.1%
same,inhibition at 10 µM,[3]; final concentration 10 µM,89.4%
same,inhibition at 30 µM,[3]; final concentration 30 µM,91.4%
"O=C(O)c1c(-c2ccc(Cl)cc2)c(-c2ccc(Cl)cc2)n2c1C(C(=O)O)CC2 (stereo not drawn) [Example 3, 5,6-bis(p-chlorophenyl)-1,2-dihydro-3H-pyrrolo[1,2-a]-pyrrole-1,7-dicarboxylic acid]",Inhibition rate,[1],71.5%
same,inhibition in vivo at 30 mg/kg,[2],44.7%
"O=C(O)C1CCn2c1cc(-c1ccc(Cl)cc1)c2-c1ccc(Cl)cc1 (stereo not drawn) [Example 6, 5,6-bis(p-chlorophenyl)-1,2-dihydro-3H-pyrrolo[1,2-a]pyrrole-1-carboxylic acid]",Inhibition rate,[1],81.3%
same,inhibition in vivo at 30 mg/kg,[2],52.3%
COc1ccc2c(c1)c(CC(=O)O)c(C)n2C(=O)c1ccc(Cl)cc1 [Indomethacin],Ulcer formation,gastric mucous damage,7/7
